According to PMC5854716, “Synthesis, molecular docking, ctDNA interaction, DFT calculation and evaluation of antiproliferative and anti-Toxoplasma gondii activities of 2,4-diaminotriazine-thiazole derivatives” (Medicinal Chemistry Research, 2018):
Converted amounts (≈) assume the structure as drawn.

Assays:
[1] = tested on: Toxoplasma gondii BK strain; test: T. gondii tachyzoite intracellular proliferation in VERO host cells ([3H]uracil incorporation); type: cell-based; conditions: Toxoplasma gondii, VERO host cells
Protocol: (§1) The epithelial cell line VERO (ATCC-Catalog No. CCL-81^TM), derived from the kidney of the African green monkey, Cercopithecus aethiops and fibroblast cell line L-929 (ATCC-Catalog No. CCL-1^TM), derived from Mus musculus (http://www.atcc.org) were grown in Iscoves’s Modified Dulbecco’s Medium (IMDM) supplemented with 10% (v/v) fetal bovine serum (FBS), plus 2 mM L-glutamine, 100 U/ml penicillin, 100.00 µg/ml streptomycin, 5 × 10^−5 M 2-mercaptoethanol and maintained at 37 °C in a 10% CO2 atmosphere. Subcultures were performed via enzymatic cell dissociation in 0.25% trypsin. After dissociation, the cells were placed in culture medium at 4 °C with 10% FBS to inhibit the action of trypsin. The isolated cells were centrifuged for 10 min at 1000×g at 4 °C, and the cells were grown in new bottles. This procedure was repeated when cells reached a confluence of ~90%. All commercial reactants and solvents were purchased from either Sigma-Aldrich Laborchemikalien GmbH (Dzitko et al. [2014]).
(§2) Suspensions of the compounds 4a–l were freshly prepared (5 mg/ml DMSO) before the cells were exposed, and diluted to appropriate concentrations; 0.9, 1.8, 3.9, 7.8, 15.6, 31.2, 62.5, and 125.00 μg/ml with the culture medium. Cells treated with 2.5% DMSO-solvent served as a control in each experiment.
Stock solutions of the Sulfadiazine (100 mg/ml 1 N NaOH; Catalog No. S8626) was freshly prepared before each experiment, and diluted to appropriate concentrations: 5.00, 25.00, 50.00, 125.00, 250.00, 500.00, 1250.00, and 2500.00 μg/ml, respectively in IMDM complete medium. All commercial reactants and solvents were purchased from either Sigma-Aldrich Laborchemikalien GmbH.
Tachyzoites of T. gondii, BK strain, were maintained in female C57BL/6 (H-2^b) and BALB/c (H-2^d) mice (with genetically determined high and low susceptibility, respectively to Toxoplasma infection) via serial intraperitoneal inoculation of 10^5–10^6 parasites per mouse in phosphate-buffered saline (PBS). After 48 to 96 h, parasites were harvested via peritoneal lavage using PBS, pH 7.2, and centrifuged at 200×g for 5 min to remove blood cells and cell debris. The supernatant containing tachyzoites was collected and centrifuged again at 2000×g for 15 min. The final pellet was resuspended in IMDM, quantified in a Burker’s chamber, and used in experimental assays. Inbred mice were kept under standard laboratory conventional conditions. All experimental procedures were conducted according to guidelines of the 9. Local Ethics Commission for Experiments on Animals in Lodz.
VERO, (2 × 10^4 cells/100 µl/well) were grown in complete medium (IMDM) on 96-well plates. After 24 h incubation, a medium was removed and then T. gondii […] tachyzoites, suspended in culture medium supplemented with 0.9–125.00 μg/ml diaminotriazines 4a–l and as a control-sulfadiazine (5.0–2500.0 μg/ml), were added (2 × 10^5 tachyzoites/200 µl/well) to the cell monolayers. After subsequent 48 h incubation 1 µCi/well of [^3H] uracil (Moravek Biochemicals Inc., Brea, CA, USA) was applied to each microculture for further 18–20 h. The amount of the isotope incorporated into the parasite nucleic acid pool, corresponding to the parasite growth, was measured by liquid scintillation counting with 1450 Microbeta Plus Liquid Scintillation Counter (Wallac Oy, Turku, Finland). The cpms of host cells alone (below 250/microculture) were subtracted from cpms of T. gondii infected microcultures (Dzitko et al. [2014]).

[2] = Cell viability assay (MTT), L929; type: cell-based, Mus musculus; conditions: mouse, L929 fibroblast cells
Protocol: as §1, §2
(§3) The effects of tested compounds on the viability of mouse fibroblasts L929 and […] VERO cells were evaluated using the MTT assay. The MTT assay was used according to international standards: ISO 10993-5:2009 (Tests for in vitro cytotoxicity; http://www.iso.org/iso/catalogue_detail.htm? csnumber = 36406). L929 and VERO cells were plated into 96-well plates at a density of 1.0 × 10^4/100 μl/well in culture medium and allowed to attach for 24 h before treatment. Afterwards, culture medium in the plates was replaced by 100 μl compounds suspension at concentration of 0–125 μg/ml and the cells were exposed for 24 h. Then 1 mg/ml MTT (50 μl/well) was added to each well and incubated at 37 °C, 10 % CO2 for 2 h. Mitochondrial dehydrogenases of viable cells reduce the yellowish water-soluble MTT to water-insoluble formazan crystals, which were solubilized with dimethyl sulfoxide (DMSO). The cell culture medium was aspirated cautiously, after which 150 μl DMSO was added to each well and mixed thoroughly. Optical density (OD) was read on the ELISA reader (Multiskan EX, Labsystems; http://www.mtxlsi.com/multiskan_EX.htm) at 550 nm. The results were expressed as percentage viability compared with the treated 2.5% DMSO controls. All experiments were performed in triplicate.

mouse L929 fibroblast = test: Cell viability assay (MTT), L929; type: cell-based; conditions: concentration for 30% proliferation inhibition, 24 h
Protocol: as §1, §2, §3

[3] = Cell viability assay (MTT), VERO; type: cell-based, Cercopithecus aethiops; conditions: African green monkey (Cercopithecus aethiops), VERO kidney epithelial cells
Protocol: as §1, §2, §3

VERO cells = test: Cell viability assay (MTT), VERO; type: cell-based, Cercopithecus aethiops; conditions: concentration for 30% proliferation inhibition, 24 h
Protocol: as §1, §2, §3

C/C(=N\NC(N)=S)c1ccc(Nc2nc(N)nc(N)n2)cc1 [Compound 3, (2E)-2-(1-(4-((4,6-diamino-1,3,5-triazin-2-yl)amino)phenyl)ethylidene)hydrazinecarbothioamide] showed an activity at 0.9 µg/mL ([1]; 0.9 µg/ml) of 100%, an activity at 1.8 µg/mL ([1]; 1.8 µg/ml) of 107% and an activity at 3.9 µg/mL ([1]; 3.9 µg/ml) of 98.6%. The activity at 7.8 µg/mL ([1]; 7.8 µg/ml) was 84.2%, the activity at 15.6 µg/mL ([1]; 15.6 µg/ml) was 64.6% and the activity at 31.2 µg/mL ([1]; 31.2 µg/ml) was 57.8%. For the same molecule, the activity at 62.5 µg/mL ([1]; 62.5 µg/ml) was 49.4%, the activity at 125 µg/mL ([1]; 125.0 µg/ml) was 48.7% and the IC50 ([1]; GraphPad Prism curves, read-out: IC50 (50% inhibition of T. gondii proliferation in vitro)) was 70.4 µg/mL (≈ 222 µM). It also gave a viability at 24 h, 0.9 µg/ml ([2]; 0.9 µg/ml) of 110%, a viability at 24 h, 1.8 µg/ml ([2]; 1.8 µg/ml) of 116% and a viability at 24 h, 3.9 µg/ml ([2]; 3.9 µg/ml) of 111%. It also gave a viability at 24 h, 7.8 µg/ml ([2]; 7.8 µg/ml) of 106%, a viability at 24 h, 15.6 µg/ml ([2]; 15.6 µg/ml) of 105% and a viability at 24 h, 31.2 µg/ml ([2]; 31.2 µg/ml) of 112%. The viability at 24 h, 62.5 µg/ml ([2]; 62.5 µg/ml) was 111%, the viability at 24 h, 125 µg/ml ([2]; 125.0 µg/ml) was 110% and the “CC30 L929” value (mouse L929 fibroblast) was greater than 125.0 µg/mL. For the same molecule, the viability at 24 h, 0.9 µg/ml ([3]; 0.9 µg/ml) was 97.2%, the viability at 24 h, 1.8 µg/ml ([3]; 1.8 µg/ml) was 94% and the viability at 24 h, 3.9 µg/ml ([3]; 3.9 µg/ml) was 97.3%. The viability at 24 h, 7.8 µg/ml ([3]; 7.8 µg/ml) was 88.8%, the viability at 24 h, 15.6 µg/ml ([3]; 15.6 µg/ml) was 89.5% and the viability at 24 h, 31.2 µg/ml ([3]; 31.2 µg/ml) was 96.2%. For the same molecule, the viability at 24 h, 62.5 µg/ml ([3]; 62.5 µg/ml) was 95.1%, the viability at 24 h, 125 µg/ml ([3]; 125.0 µg/ml) was 89.2% and the “CC30 VERO” value (VERO cells) was greater than 125.0 µg/mL. The melting point was greater than 230 °C.
